Data: patent US20070036793A1, “Methods for use of an lkb1/strad7mo25 complex” (priority 2003, published 2007)
Entries after “also recorded” stand apart in the source; their conditions may differ.

How the values were obtained:
[1] = system: acetyl-CoA carboxylase (ACC); experiment: Phosphorylation of acetyl-CoA carboxylase at Ser-79 in HeLa cells expressing LKB1; format: cell-based, human; details: HeLa cells stably expressing wild type LKB1; 2 mM AICA riboside or 10 mM phenformin, 60 min
Method: (§1) FIG. 18: Restoration of the ability of AMPK to be activated by AICA riboside and phenformin in HeLa cells by expression of LKB1. Control HeLa cells (lanes 1, 2, 3), HeLa cells expressing wild type (WT) LKB1 (lanes 4, 5, 6) and kinase dead (D194A, KD) mutant LKB1 (lanes 7, 8, 9) were either left unstimulated or treated with 2 mM AICA riboside or 10 mM phenformin for 60 min and lysed. (A) Endogenous AMPK was immunoprecipitated from the cell extracts and assayed. (B) The cell lysates was immunoblotted with antibodies recognising AMPKα1 phosphorylated at Thr172 or total AMPKα1; the results were analysed using the LI-COR IR Odyssesy™ imager as described under Materials and Methods, and are expressed as a ratio of the two signals. (C) The cell lysates was analysed by Western blotting and the membranes probed with antibodies recognising ACC phosphorylated at Ser-79, or streptavidin to determine total […]. The results were analysed using the LI-COR IR imager as for (B).
To analyse phosphorylation of ACC, samples were analysed by SDS-PAGE, transferred to nitrocellulose (BioRad) and incubated in Odyssey™ Blocking buffer containing 0.2% Tween-20 for 1 h. […] The membranes were scanned in two different channels using the Odyssey™ IR imager, the results quantified using Odyssey™ software and expressed as a ratio of the signal obtained with the pACC antibody to that obtained with streptavidin. […]

AMPK = target: T1, AMPK (Homo sapiens, UniProt Q13131); experiment: Activation and Thr-172 phosphorylation of endogenous AMPK in HeLa cells with or without stably expressed LKB1; format: cell-based; details: 2 mM AICA riboside or 10 mM phenformin, 60 min
T1 construct: Endogenous AMPK was immunoprecipitated from the cell extracts and assayed; endogenous in cells; host or cells: HeLa cells (control, or stably expressing wild type or kinase-dead LKB1)
Method: as §1
AMPK [14]and AMPKK [34] were assayed, and units defined, as described previously. Rapid lysis of cells for AMPK assays was as described previously. Assays were carried out in triplicate and results are expressed as mean ± standard deviation.
To analyse phosphorylation of ACC, samples were analysed by SDS-PAGE, transferred to nitrocellulose (BioRad) and incubated in Odyssey™ Blocking buffer containing 0.2% Tween-20 for 1 h. Anti-pACC antibody (1.46 μg/ml in blocking buffer) was then added and left shaking for 1 h. The membranes were washed 6×5 min with TBS (10 mM Tris-HCl, pH 7.4, 0.5M NaCl) plus Tween-20 (0.2%). The membranes were immersed in blocking buffer containing 0.2% Tween-20 and 1 μg/ml anti-sheep IgG conjugated to JR dye 680 (Molecular Probes, Leiden, The Netherlands) and 1 μg/ml streptavidin conjugated to IR Dye 800 (Rockland Inc., Philadelphia, Pa.) and left shaking for 1 h, protected from light. The membranes were then washed 6×5 min using TBS-Tween (0.2%) and 1×5 min in PBS. The membranes were scanned in two different channels using the Odyssey™ IR imager, the results quantified using Odyssey™ software and expressed as a ratio of the signal obtained with the pACC antibody to that obtained with streptavidin. Analysis of phosphorylation of GST-α1 catalytic domain was similar except that the 4-12% Bis-Tris gels were used, and the membranes were simultaneously probed for 1 h with the sheep anti-pT172 and anti-AMPKα1-catalytic domain antibodies, directly labelled with the IR dye 680 and IR Dye 800 respectively, according to manufacturers' instructions.

[2] = HeLa cells stably expressing wild type LKB1
[3] = control HeLa cells not expressing LKB1

T1 sequence (Q13131 whole entry): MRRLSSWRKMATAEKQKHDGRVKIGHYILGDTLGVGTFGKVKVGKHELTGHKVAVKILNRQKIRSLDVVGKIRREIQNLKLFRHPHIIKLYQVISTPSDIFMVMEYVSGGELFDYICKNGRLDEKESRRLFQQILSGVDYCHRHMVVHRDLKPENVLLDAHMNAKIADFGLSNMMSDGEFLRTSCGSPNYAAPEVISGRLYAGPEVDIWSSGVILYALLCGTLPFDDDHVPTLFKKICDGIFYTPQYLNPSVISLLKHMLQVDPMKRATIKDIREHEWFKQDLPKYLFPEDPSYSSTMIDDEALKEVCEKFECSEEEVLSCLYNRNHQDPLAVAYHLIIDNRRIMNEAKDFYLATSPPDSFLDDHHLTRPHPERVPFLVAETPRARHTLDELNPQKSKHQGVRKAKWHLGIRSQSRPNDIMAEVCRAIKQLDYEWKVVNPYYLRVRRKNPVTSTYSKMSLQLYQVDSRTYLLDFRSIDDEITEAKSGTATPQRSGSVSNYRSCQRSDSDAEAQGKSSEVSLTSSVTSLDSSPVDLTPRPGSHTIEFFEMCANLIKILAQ
T1 sequence (Q9Y478 2-270 partner limits assumed): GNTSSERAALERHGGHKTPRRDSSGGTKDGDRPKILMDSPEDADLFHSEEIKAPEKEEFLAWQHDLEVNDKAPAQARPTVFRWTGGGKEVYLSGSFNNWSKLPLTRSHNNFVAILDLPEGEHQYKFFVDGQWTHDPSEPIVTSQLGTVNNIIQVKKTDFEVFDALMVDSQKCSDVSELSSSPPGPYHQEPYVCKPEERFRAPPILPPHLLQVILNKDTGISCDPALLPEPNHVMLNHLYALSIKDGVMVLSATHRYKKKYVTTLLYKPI
T1 sequence (P54619 whole entry partner): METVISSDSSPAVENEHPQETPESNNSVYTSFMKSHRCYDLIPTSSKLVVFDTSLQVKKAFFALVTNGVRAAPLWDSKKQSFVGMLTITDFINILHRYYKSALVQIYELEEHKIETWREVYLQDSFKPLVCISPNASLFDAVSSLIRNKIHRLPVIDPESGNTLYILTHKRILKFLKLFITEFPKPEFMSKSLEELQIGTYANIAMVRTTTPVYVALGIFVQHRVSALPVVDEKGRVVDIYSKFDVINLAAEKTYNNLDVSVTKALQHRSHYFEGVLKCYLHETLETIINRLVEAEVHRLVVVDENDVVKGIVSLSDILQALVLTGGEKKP

NC(=O)c1ncn([C@@H]2O[C@H](CO)[C@@H](O)[C@H]2O)c1N [AICA riboside, 5-aminoimidazole-4-carboxamide (AICA) riboside]
phosphorylation of downstream target ACC (Ser-79) [1]: larger effect than phenformin; also recorded: restored | activation of AMPK (AMPK; [2]): robust activation | phosphorylation of Thr-172 on the AMPKα subunit (AMPK; [2]): restored | activation of AMPK (AMPK; [3]): neither AICA riboside nor phenformin activated AMPK

[H]/N=C(/N)N/C(=N/[H])NCCc1ccccc1 [phenformin]
phosphorylation of downstream target ACC (Ser-79) [1]: restored | activation of AMPK (AMPK; [2]): robust activation; also recorded: larger activation of AMPK | phosphorylation of Thr-172 on the AMPKα subunit (AMPK; [2]): restored | activation of AMPK (AMPK; [3]): neither AICA riboside nor phenformin activated AMPK
